# Source: patent publication US20230017045A1, “PYRIDINE AND PYRIMIDINE CARBOXYLATE HERBICIDES AND METHODS OF USE THEREOF” (Dow AgroSciences LLC, priority 2017, published 2023)
# Test system: test plant species
# Assay: Post-emergent herbicidal activity test (greenhouse, foliar spray, visual growth reduction)
# Format: in vivo
# Details: post-emergence, 336 h, ALOMY: blackgrass (Alopecurus myosuroides), 140 g ai/ha, 14 days after application, read-out: Visual Growth Reduction (%) 14 Days After Application, ALOMY
# Outline: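 Visual scoring 14 d after treatment (0 = no injury, 100 = complete control) against nontreated and solvent-blank plants gave percent growth reduction. Foliar application used a track sprayer delivering 187 L/ha to seedlings at first or second true leaf stage, grown at 23–29 °C day, ~15 h photoperiod.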
row,SMILES,pest or weed control at 140 g/ha [%]
1,"COC(=O)c1nc(-c2ccc(C(F)(F)F)cc2)c(F)cc1Cl [F93, Methyl 3-chloro-5-fluoro-6-(4-(trifluoromethyl)phenyl)picolinate]",0 to 29

# Same assay, conditions: post-emergence, 336 h, AMARE: redroot pigweed (Amaranthus retroflexus), 140 g ai/ha, 14 days after application, read-out: Visual Growth Reduction (%) 14 Days After Application, AMARE
row,SMILES,pest or weed control at 140 g/ha [%]
1,"COC(=O)c1nc(-c2ccc(C(F)(F)F)cc2)c(F)cc1Cl [F93, Methyl 3-chloro-5-fluoro-6-(4-(trifluoromethyl)phenyl)picolinate]",0 to 29

# Same assay, conditions: post-emergence, 336 h, AVEFA: wild oat (Avena fatua), 140 g ai/ha, 14 days after application, read-out: Visual Growth Reduction (%) 14 Days After Application, AVEFA
row,SMILES,pest or weed control at 140 g/ha [%]
1,"COC(=O)c1nc(-c2ccc(C(F)(F)F)cc2)c(F)cc1Cl [F93, Methyl 3-chloro-5-fluoro-6-(4-(trifluoromethyl)phenyl)picolinate]",0 to 29

# Same assay, conditions: post-emergence, 336 h, CHEAL: lambsquarters (Chenopodium album), 140 g ai/ha, 14 days after application, read-out: Visual Growth Reduction (%) 14 Days After Application, CHEAL
row,SMILES,pest or weed control at 140 g/ha [%]
1,"COC(=O)c1nc(-c2ccc(C(F)(F)F)cc2)c(F)cc1Cl [F93, Methyl 3-chloro-5-fluoro-6-(4-(trifluoromethyl)phenyl)picolinate]",45 to 59

# Same assay, conditions: post-emergence, 336 h, CIRAR: canada thistle (Cirsium arvense), 140 g ai/ha, 14 days after application, read-out: Visual Growth Reduction (%) 14 Days After Application, CIRAR
row,SMILES,pest or weed control at 140 g/ha [%]
1,"COC(=O)c1nc(-c2ccc(C(F)(F)F)cc2)c(F)cc1Cl [F93, Methyl 3-chloro-5-fluoro-6-(4-(trifluoromethyl)phenyl)picolinate]",30 to 44

# Same assay, conditions: post-emergence, 336 h, CYPES: yellow nutsedge (Cyperus esculentus), 140 g ai/ha, 14 days after application, read-out: Visual Growth Reduction (%) 14 Days After Application, CYPES
row,SMILES,pest or weed control at 140 g/ha [%]
1,"COC(=O)c1nc(-c2ccc(C(F)(F)F)cc2)c(F)cc1Cl [F93, Methyl 3-chloro-5-fluoro-6-(4-(trifluoromethyl)phenyl)picolinate]",0 to 29

# Same assay, conditions: post-emergence, 336 h, DIGSA: crabgrass (Digitaria sanguinalis), 140 g ai/ha, 14 days after application, read-out: Visual Growth Reduction (%) 14 Days After Application, DIGSA
row,SMILES,pest or weed control at 140 g/ha [%]
1,"COC(=O)c1nc(-c2ccc(C(F)(F)F)cc2)c(F)cc1Cl [F93, Methyl 3-chloro-5-fluoro-6-(4-(trifluoromethyl)phenyl)picolinate]",60 to 74

# Same assay, conditions: post-emergence, 336 h, ECHCG: barnyardgrass (Echinochloa crus-galli), 140 g ai/ha, 14 days after application, read-out: Visual Growth Reduction (%) 14 Days After Application, ECHCG
row,SMILES,pest or weed control at 140 g/ha [%]
1,"COC(=O)c1nc(-c2cc(F)c(C(F)(F)F)cc2Cl)c(F)cc1Cl [F241, Methyl 3-chloro-6-(2-chloro-5-fluoro-4-(trifluoromethyl)phenyl)-5-fluoropicolinate]",60 to 74
2,"CCCOC(=O)c1nc(-c2ccc(Cl)c(OC)c2F)ccc1Cl [F286, Propyl 3-chloro-6-(4-chloro-2-fluoro-3-methoxyphenyl) picolinate]",0 to 29
3,"COC(=O)c1nc(-c2ccc(C(F)(F)F)cc2)c(F)cc1Cl [F93, Methyl 3-chloro-5-fluoro-6-(4-(trifluoromethyl)phenyl)picolinate]",0 to 29

# Same assay, conditions: post-emergence, 336 h, IPOHE: ivy-leaf morning glory (Ipomoea hederacea), 140 g ai/ha, 14 days after application, read-out: Visual Growth Reduction (%) 14 Days After Application, IPOHE
row,SMILES,pest or weed control at 140 g/ha [%]
1,"COC(=O)c1nc(-c2cc(F)c(C(F)(F)F)cc2Cl)c(F)cc1Cl [F241, Methyl 3-chloro-6-(2-chloro-5-fluoro-4-(trifluoromethyl)phenyl)-5-fluoropicolinate]",95 to 100
2,"CCCOC(=O)c1nc(-c2ccc(Cl)c(OC)c2F)ccc1Cl [F286, Propyl 3-chloro-6-(4-chloro-2-fluoro-3-methoxyphenyl) picolinate]",60 to 74
3,"COC(=O)c1nc(-c2ccc(C(F)(F)F)cc2)c(F)cc1Cl [F93, Methyl 3-chloro-5-fluoro-6-(4-(trifluoromethyl)phenyl)picolinate]",60 to 74

# Same assay, conditions: post-emergence, 336 h, KCHSC: kochia (Bassia scoparia), 140 g ai/ha, 14 days after application, read-out: Visual Growth Reduction (%) 14 Days After Application, KCHSC
row,SMILES,pest or weed control at 140 g/ha [%]
1,"COC(=O)c1nc(-c2cc(F)c(C(F)(F)F)cc2Cl)c(F)cc1Cl [F241, Methyl 3-chloro-6-(2-chloro-5-fluoro-4-(trifluoromethyl)phenyl)-5-fluoropicolinate]",95 to 100
2,"CCCOC(=O)c1nc(-c2ccc(Cl)c(OC)c2F)ccc1Cl [F286, Propyl 3-chloro-6-(4-chloro-2-fluoro-3-methoxyphenyl) picolinate]",60 to 74
3,"COC(=O)c1nc(-c2ccc(C(F)(F)F)cc2)c(F)cc1Cl [F93, Methyl 3-chloro-5-fluoro-6-(4-(trifluoromethyl)phenyl)picolinate]",0 to 29

# Same assay, conditions: post-emergence, 336 h, ORYSA: rice (Oryza sativa), 140 g ai/ha, 14 days after application, read-out: Visual Growth Reduction (%) 14 Days After Application, ORYSA
row,SMILES,pest or weed control at 140 g/ha [%]
1,"COC(=O)c1nc(-c2cc(F)c(C(F)(F)F)cc2Cl)c(F)cc1Cl [F241, Methyl 3-chloro-6-(2-chloro-5-fluoro-4-(trifluoromethyl)phenyl)-5-fluoropicolinate]",0 to 29
2,"CCCOC(=O)c1nc(-c2ccc(Cl)c(OC)c2F)ccc1Cl [F286, Propyl 3-chloro-6-(4-chloro-2-fluoro-3-methoxyphenyl) picolinate]",0 to 29
3,"COC(=O)c1nc(-c2ccc(C(F)(F)F)cc2)c(F)cc1Cl [F93, Methyl 3-chloro-5-fluoro-6-(4-(trifluoromethyl)phenyl)picolinate]",0 to 29

# Same assay, conditions: post-emergence, 336 h, SETFA: giant foxtail (Setaria faberi), 140 g ai/ha, 14 days after application, read-out: Visual Growth Reduction (%) 14 Days After Application, SETFA
row,SMILES,pest or weed control at 140 g/ha [%]
1,"COC(=O)c1nc(-c2cc(F)c(C(F)(F)F)cc2Cl)c(F)cc1Cl [F241, Methyl 3-chloro-6-(2-chloro-5-fluoro-4-(trifluoromethyl)phenyl)-5-fluoropicolinate]",95 to 100
2,"CCCOC(=O)c1nc(-c2ccc(Cl)c(OC)c2F)ccc1Cl [F286, Propyl 3-chloro-6-(4-chloro-2-fluoro-3-methoxyphenyl) picolinate]",0 to 29
3,"COC(=O)c1nc(-c2ccc(C(F)(F)F)cc2)c(F)cc1Cl [F93, Methyl 3-chloro-5-fluoro-6-(4-(trifluoromethyl)phenyl)picolinate]",0 to 29

# Same assay, conditions: post-emergence, 336 h, SORVU: grain sorghum (Sorghum vulgare), 140 g ai/ha, 14 days after application, read-out: Visual Growth Reduction (%) 14 Days After Application, SORVU
row,SMILES,pest or weed control at 140 g/ha [%]
1,"COC(=O)c1nc(-c2cc(F)c(C(F)(F)F)cc2Cl)c(F)cc1Cl [F241, Methyl 3-chloro-6-(2-chloro-5-fluoro-4-(trifluoromethyl)phenyl)-5-fluoropicolinate]",95 to 100
2,"CCCOC(=O)c1nc(-c2ccc(Cl)c(OC)c2F)ccc1Cl [F286, Propyl 3-chloro-6-(4-chloro-2-fluoro-3-methoxyphenyl) picolinate]",0 to 29
3,"COC(=O)c1nc(-c2ccc(C(F)(F)F)cc2)c(F)cc1Cl [F93, Methyl 3-chloro-5-fluoro-6-(4-(trifluoromethyl)phenyl)picolinate]",0 to 29

# Same assay, conditions: post-emergence, 336 h, STEME: common chickweed (Stellaria media), 140 g ai/ha, 14 days after application, read-out: Visual Growth Reduction (%) 14 Days After Application, STEME
row,SMILES,pest or weed control at 140 g/ha [%]
1,"COC(=O)c1nc(-c2cc(F)c(C(F)(F)F)cc2Cl)c(F)cc1Cl [F241, Methyl 3-chloro-6-(2-chloro-5-fluoro-4-(trifluoromethyl)phenyl)-5-fluoropicolinate]",0 to 29
2,"CCCOC(=O)c1nc(-c2ccc(Cl)c(OC)c2F)ccc1Cl [F286, Propyl 3-chloro-6-(4-chloro-2-fluoro-3-methoxyphenyl) picolinate]",0 to 29
3,"COC(=O)c1nc(-c2ccc(C(F)(F)F)cc2)c(F)cc1Cl [F93, Methyl 3-chloro-5-fluoro-6-(4-(trifluoromethyl)phenyl)picolinate]",0 to 29

# Same assay, conditions: post-emergence, 336 h, TRZAS: wheat, spring (Triticum aestivum), 140 g ai/ha, 14 days after application, read-out: Visual Growth Reduction (%) 14 Days After Application, TRZAS
row,SMILES,pest or weed control at 140 g/ha [%]
1,"COC(=O)c1nc(-c2cc(F)c(C(F)(F)F)cc2Cl)c(F)cc1Cl [F241, Methyl 3-chloro-6-(2-chloro-5-fluoro-4-(trifluoromethyl)phenyl)-5-fluoropicolinate]",75 to 84
2,"CCCOC(=O)c1nc(-c2ccc(Cl)c(OC)c2F)ccc1Cl [F286, Propyl 3-chloro-6-(4-chloro-2-fluoro-3-methoxyphenyl) picolinate]",0 to 29
3,"COC(=O)c1nc(-c2ccc(C(F)(F)F)cc2)c(F)cc1Cl [F93, Methyl 3-chloro-5-fluoro-6-(4-(trifluoromethyl)phenyl)picolinate]",0 to 29

# Same assay, conditions: post-emergence, 336 h, blackgrass (Alopecurus myosuroides), 14 Days After Application, 140 g ai/ha, read-out: Visual Growth Reduction (%) ALOMY
row,SMILES,pest or weed control at 140 g/ha [%]
1,"COC(=O)c1nc(-c2cc(F)c(C(F)(F)F)cc2Cl)c(F)cc1Cl [F241, Methyl 3-chloro-6-(2-chloro-5-fluoro-4-(trifluoromethyl)phenyl)-5-fluoropicolinate]",60 to 74
2,"CCCOC(=O)c1nc(-c2ccc(Cl)c(OC)c2F)ccc1Cl [F286, Propyl 3-chloro-6-(4-chloro-2-fluoro-3-methoxyphenyl) picolinate]",0 to 29

# Same assay, conditions: post-emergence, 336 h, canada thistle (Cirsium arvense), 14 Days After Application, 140 g ai/ha, read-out: Visual Growth Reduction (%) CIRAR
row,SMILES,pest or weed control at 140 g/ha [%]
1,"COC(=O)c1nc(-c2cc(F)c(C(F)(F)F)cc2Cl)c(F)cc1Cl [F241, Methyl 3-chloro-6-(2-chloro-5-fluoro-4-(trifluoromethyl)phenyl)-5-fluoropicolinate]",95 to 100
2,"CCCOC(=O)c1nc(-c2ccc(Cl)c(OC)c2F)ccc1Cl [F286, Propyl 3-chloro-6-(4-chloro-2-fluoro-3-methoxyphenyl) picolinate]",60 to 74

# Same assay, conditions: post-emergence, 336 h, crabgrass (Digitaria sanguinalis), 14 Days After Application, 140 g ai/ha, read-out: Visual Growth Reduction (%) DIGSA
row,SMILES,pest or weed control at 140 g/ha [%]
1,"COC(=O)c1nc(-c2cc(F)c(C(F)(F)F)cc2Cl)c(F)cc1Cl [F241, Methyl 3-chloro-6-(2-chloro-5-fluoro-4-(trifluoromethyl)phenyl)-5-fluoropicolinate]",95 to 100
2,"CCCOC(=O)c1nc(-c2ccc(Cl)c(OC)c2F)ccc1Cl [F286, Propyl 3-chloro-6-(4-chloro-2-fluoro-3-methoxyphenyl) picolinate]",0 to 29

# Same assay, conditions: post-emergence, 336 h, lambsquarters (Chenopodium album), 14 Days After Application, 140 g ai/ha, read-out: Visual Growth Reduction (%) CHEAL
row,SMILES,pest or weed control at 140 g/ha [%]
1,"COC(=O)c1nc(-c2cc(F)c(C(F)(F)F)cc2Cl)c(F)cc1Cl [F241, Methyl 3-chloro-6-(2-chloro-5-fluoro-4-(trifluoromethyl)phenyl)-5-fluoropicolinate]",95 to 100
2,"CCCOC(=O)c1nc(-c2ccc(Cl)c(OC)c2F)ccc1Cl [F286, Propyl 3-chloro-6-(4-chloro-2-fluoro-3-methoxyphenyl) picolinate]",75 to 84

# Same assay, conditions: post-emergence, 336 h, redroot pigweed (Amaranthus retroflexus), 14 Days After Application, 140 g ai/ha, read-out: Visual Growth Reduction (%) AMARE
row,SMILES,pest or weed control at 140 g/ha [%]
1,"COC(=O)c1nc(-c2cc(F)c(C(F)(F)F)cc2Cl)c(F)cc1Cl [F241, Methyl 3-chloro-6-(2-chloro-5-fluoro-4-(trifluoromethyl)phenyl)-5-fluoropicolinate]",95 to 100
2,"CCCOC(=O)c1nc(-c2ccc(Cl)c(OC)c2F)ccc1Cl [F286, Propyl 3-chloro-6-(4-chloro-2-fluoro-3-methoxyphenyl) picolinate]",0 to 29

# Same assay, conditions: post-emergence, 336 h, wild oat (Avena fatua), 14 Days After Application, 140 g ai/ha, read-out: Visual Growth Reduction (%) AVEFA
row,SMILES,pest or weed control at 140 g/ha [%]
1,"COC(=O)c1nc(-c2cc(F)c(C(F)(F)F)cc2Cl)c(F)cc1Cl [F241, Methyl 3-chloro-6-(2-chloro-5-fluoro-4-(trifluoromethyl)phenyl)-5-fluoropicolinate]",85 to 94
2,"CCCOC(=O)c1nc(-c2ccc(Cl)c(OC)c2F)ccc1Cl [F286, Propyl 3-chloro-6-(4-chloro-2-fluoro-3-methoxyphenyl) picolinate]",0 to 29

# Same assay, conditions: post-emergence, 336 h, yellow nutsedge (Cyperus esculentus), 14 Days After Application, 140 g ai/ha, read-out: Visual Growth Reduction (%) CYPES
row,SMILES,pest or weed control at 140 g/ha [%]
1,"COC(=O)c1nc(-c2cc(F)c(C(F)(F)F)cc2Cl)c(F)cc1Cl [F241, Methyl 3-chloro-6-(2-chloro-5-fluoro-4-(trifluoromethyl)phenyl)-5-fluoropicolinate]",60 to 74
2,"CCCOC(=O)c1nc(-c2ccc(Cl)c(OC)c2F)ccc1Cl [F286, Propyl 3-chloro-6-(4-chloro-2-fluoro-3-methoxyphenyl) picolinate]",0 to 29
